Patent US20240108740A1, “THERAPEUTIC COMPOSITIONS INCLUDING SPN10 AND USES THEREOF” (Stealth BioTherapeutics Inc., priority 2022, published 2024)
Residues, ends and D or L forms follow the SMILES beside them.

Assays:
[1] = test system: Sprague Dawley rats; experiment: Example 51: burn-induced hypermetabolism and UCP-1 expression in brown adipose tissue; format: in vivo, rat
Excerpt: Methods. Sprague Dawley rats will be randomly divided into the following groups; sham (S), sham with saline vehicle (SSal), sham with peptide conjugate-treatment (SC), sham with aromatic-cationic peptides (SC2), sham with SPN10(s) (SC3), sham with SPN10(s)+aromatic-cationic peptides (SC4), burn with saline vehicle (BSal), burn with peptide conjugate-treatment (BC), burn with aromatic-cationic peptides (BC2), burn with SPN10(s) (BC3) and burn with SPN10(s)+aromatic-cationic peptides (BC4). The dorsal aspect of burn subjects will be immersed into 100° C. water for 12 seconds to produce third degree 30% TBSA burns under general anesthesia. Sham burn will be produced by immersion in lukewarm water. Subjects will receive 40 mL/kg intraperitoneal saline injection for the resuscitation following the injury. A venous catheter will be placed surgically into the right jugular vein subsequent to sham or burn injury. […] Indirect calorimetry will be performed for 24 hours at 6 days after burn injury in a TSE Indirect Calorimetry System (TSE Co., Germany), and VO2, VCO2 and energy expenditure will be recorded every six minutes. Interscapullar brown adipose tissue will be collected after the indirect calorimetry, and UCP-1 expression in the brown adipose tissue will be evaluated by Western blot.

[2] = test system: mice; experiment: Example 57: Ang II-induced hypertensive cardiomyopathy; format: in vivo, mouse
Method: Mouse experiments, drug delivery, echocardiography and blood pressure measurement. Six to ten mice will be included in each experimental group (Saline, Ang II, Ang II+peptide conjugate, Ang II+aromatic-cationic peptide, Ang II+SPN10, Ang II+SPN10+aromatic-cationic peptide, WT, Gαq, Gαq+peptide conjugate, Gαq+aromatic-cationic peptide, Gαq+SPN10, Gαq+SPN10+aromatic-cationic peptide). A pressor dose of Ang II (1.1 mg/kg/d) will be continuously administered for 4 weeks using subcutaneous Alzet 1004 osmotic minipumps, either alone or in the presence of with peptide conjugates (3 mg/kg/d), aromatic-cationic peptides (an equivalent molar dose of aromatic-cationic peptide based on concentration of the aromatic-cationic peptide administered in the peptide conjugate group), SPN10(s) (an equivalent molar dose of SPN10 based on concentration of SPN10 administered in the peptide conjugate group), or SPN10(s) in combination with aromatic-cationic peptides (e.g., an equivalent molar dose of SPN10 based on the concentration of SPN10 administered in the peptide conjugate treatment group and an equivalent molar dose of aromatic-cationic peptide based on the concentration of aromatic-cationic peptide administered in the peptide conjugate treatment group). Echocardiography will be performed at baseline and 4 weeks after pump implantation using a Siemens Acuson CV-70 equipped with a 13 MHz probe. […] MTI will be calculated as the ratio of the sum of isovolemic contraction and relaxation time to LV ejection time. […]
Blood pressure will be measured in a separate group of mice by telemetry using an intravascular catheter PA-C 10 (DSI, MN), in which measurement will be performed every three hours starting from 2 days before pump placement until 2 days after Ang pump placement. […]
Quantitative Pathology. […] Quantitative analysis of fibrosis will be performed by measuring the percentage of blue-staining fibrotic tissue relative to the total cross-sectional area of the ventricles. […]

[3] = test system: animal models of ALF; experiment: Example 44: animal models of acute liver failure (ALF); conditions: in vivo
Excerpt: Suitable animal models of ALF utilize surgical procedures, toxic liver injury, or a combination thereof. See Belanger & Butterworth, Metabolic Brain Disease, 20:409-423 (2005). Peptide conjugates, aromatic-cationic peptides, SPN10(s) with or without aromatic-cationic peptides or control vehicle will be administered prior to or simultaneously with a toxic or surgical insult. Hepatic function will be assessed by measuring serum hepatic enzymes (transaminases, alkaline phosphatase), serum bilirubin, serum ammonia, serum glucose, serum lactate, or serum creatinine. Efficacy of SPN10(s) (with or without aromatic-cationic peptides) or conjugates in preventing ALF will be indicated by a reduction in the occurrence or severity of the ALF as indicated by the above markers, as compared to control subjects.

In the case of `N=C(N)NCCC[C@H](NC(=O)[C@@H](N)Cc1c[nH]c2ccccc12)C(=O)N[C@@H](Cc1c[nH]c2ccccc12)C(=O)N[C@@H](CCCCN)C(N)=O` [SPN10, H-L-Trp-L-Arg-L-Trp-L-Lys-NH2] (H-WRWK-NH2), the “UCP-1 levels in brown adipose tissue (Western blot)” value ([1]; burn groups BC, BC2, BC3, BC4 vs BSal) is reported as “lower than in the BSal group”, the “increase in VO2, VCO2, and energy expenditure after burn” value ([1]; infused for 7 days) is reported as “significantly attenuate this effect” and the “Ang II-induced ventricular fibrosis (trichrome)” value ([2]; 4 weeks of Ang II) is reported as “fully attenuated”. For the same compound, the “cardiac mitochondrial protein carbonyls” value ([2]; 4 weeks of Ang II) was “significantly reduce cardiac mitochondrial protein carbonyls”, the “Ang II-induced cardiomyopathy” value ([2]; Ang II 1.1 mg/kg/d, 4 weeks) was “ameliorate Ang II-induced cardiomyopathy” and the “reduced liver function after toxic or surgical liver insult” value [3] was “attenuate or prevent these effects”.
